This is an account of results in PubChem BioAssay AID1996.

≈ marks a conversion by molar mass, not a printed value. Bounds are passed on as bounds.

The conditions of this data set: buffer; pH 7.4; 200.0 µM.
In general, solubility (kinetic) refers to solubility judged after dilution from a stock solution rather than from solid. `Cc1ccc2nc(N3C(=O)CNC3=S)sc2c1` showed a kinetic solubility of 0.0119 mg/mL (≈ 45.2 µM).
Next, `CCC1CCc2sc(C(=O)N3CCCN(C)CC3)cc2C1` (configuration not stated): 0.0375 mg/mL (≈ 122 µM); `Cc1ccccc1-n1c(O)c(/C=N/NC(=O)c2ccncc2)c(=O)[nH]c1=O`: over 0.0548 mg/mL; `O=C(Nc1ccccc1)c1ccc(NC(=O)c2cccs2)cc1`: under 0.0003 mg/mL.
Next, `O=C(CN1CCCCCC1)Nc1ccccc1[N+](=O)[O-]`: 0.014 mg/mL (≈ 50.5 µM); `NS(=O)(=O)c1cc(C(=O)OCC(=O)Nc2ccc3c(c2)OCO3)ccc1Cl`: 0.0169 mg/mL (≈ 40.9 µM); `NC(=O)C1CCN(C(=O)CSc2nc(O)cc(=O)[nH]2)CC1`: 0.0311 mg/mL (≈ 99.6 µM).
Next, `O=[N+]([O-])c1ccccc1S(=O)(=O)N1CCN(c2ccccn2)CC1`: 0.0041 mg/mL (≈ 11.8 µM); `Cc1cn2c(=O)c(C(=O)N3CCN(c4ccccc4)CC3)cnc2s1`: over 0.0532 mg/mL; `O=C(Nc1ccc(F)cc1)C1C2CCC3C(CCC21)C3(Cl)Cl` (configuration not stated): 0.0008 mg/mL (≈ 2.34 µM).
As to `O=C(Cc1ccccc1)c1c[nH]c(C(=O)NC2CCCC2)c1`, the solubility (kinetic) amounted to 0.0026 mg/mL (≈ 8.77 µM).
With `O=S(=O)(Cc1noc(-c2ccc(OC(F)(F)F)cc2)n1)c1ccc(F)cc1` the figure was under 0.0004 mg/mL.
With `COc1cc(S(=O)(=O)N2CCn3cccc3C2C)ccc1NC(C)=O` (configuration not stated) the figure was over 0.0545 mg/mL.
Next, `CC(=O)Nc1cccc(C(=O)OC2CCOC2=O)c1` (configuration not stated): over 0.0395 mg/mL; `COc1ccc(C(=S)N2CCN(c3cccc(Cl)c3)CC2)cc1`: 0.0012 mg/mL (≈ 3.46 µM).
For `COC(=O)c1ccsc1NC(=O)c1cccc(OC)c1`, the solubility (kinetic) came to 0.0014 mg/mL (≈ 4.81 µM). The solubility kinetic values of the last two molecules are within 1.5-fold of each other.
With `C=CCc1cccc2cc(C(=O)N3CCOCC3)c(=O)oc12` the figure was 0.0428 mg/mL (≈ 143 µM); with `O=C(COc1ccc2ccccc2c1)Nc1ccccc1C(=O)O`, over 0.0482 mg/mL.
Next, `COc1ccccc1Cn1c(C)nc2ccccc21`: 0.037 mg/mL (≈ 147 µM); `O=C(NCc1ccccn1)Nc1ccc(F)cc1F`: over 0.0395 mg/mL; `O=C(O)CCCC(=O)Nc1ccc2c(c1)oc1ccccc12`: over 0.0446 mg/mL.
Next, `CN(C)Cc1ccc(CNC(=O)COc2ccc3ccccc3c2)cc1`: 0.0447 mg/mL (≈ 128 µM); `Cc1ccc(CNC(=O)C2CC(=O)N(CCC(C)C)C2)cc1` (configuration not stated): 0.0405 mg/mL (≈ 134 µM); `Cc1c(C(=O)O)sc2nc(/C=C/c3cccc(F)c3)[nH]c(=O)c12`: 0.0413 mg/mL (≈ 125 µM).
`COc1cccc(COc2ncnc3sccc23)c1` came in with a kinetic solubility of 0.0372 mg/mL (≈ 137 µM).
With `Cc1ccc(NC(=O)CSCC(=O)O)cc1` the figure was over 0.0359 mg/mL; with `CN1CCN(c2ccccc2/C=C2/C(=O)Nc3ccccc32)CC1`, over 0.0479 mg/mL; with `Cc1nn(C)c(C)c1NC(=O)CCl.Cl`, over 0.0357 mg/mL.
With `CC(C)(C)c1ccc(C(=O)N2CCN(C(=O)c3cccs3)CC2)cc1` the figure was over 0.0535 mg/mL; with `O=C(NC(=S)Nc1ccc2c(c1)OCCO2)c1ccco1`, 0.0403 mg/mL (≈ 132 µM); with `O=C(COC(=O)c1ccc([N+](=O)[O-])o1)NC1CCCc2ccccc21` (configuration not stated), 0.0263 mg/mL (≈ 76.4 µM).
With `S=C(NCCc1cccc(Cl)c1)NCc1ccccc1` the figure was 0.0149 mg/mL (≈ 48.9 µM); with `O=C(COc1ccccc1)NCCc1cnc[nH]1`, over 0.0368 mg/mL; with `COc1ccc(Cl)cc1NC(=O)CN1CCc2ccccc2C1`, under 0.0004 mg/mL.
In turn, `CNc1oc(-c2cccs2)nc1S(=O)(=O)c1ccccc1` registered a solubility (kinetic) of 0.0042 mg/mL (≈ 13.1 µM).
Next, `Cc1ccc2c(CN3CCN(Cc4ccccc4)CC3)cc(=O)oc2c1C`: 0.0254 mg/mL (≈ 70.1 µM); `Cc1ccc(S(=O)(=O)Nc2ncnc3ccccc23)cc1`: over 0.0449 mg/mL.
With `COc1cc(C2C(C#N)=C(N)Oc3cc(C)oc(=O)c32)cc(OC)c1OC` (configuration not stated) the figure was over 0.0556 mg/mL; with `NC(=O)c1ccc[n+](CC(=O)c2ccc(F)cc2)c1.[Br-]`, over 0.0509 mg/mL; with `NC1=C(c2ccccc2)C(=O)NC1=O`, over 0.0282 mg/mL.
With `COc1ccc(-c2ccc3c(N)c(C(=O)NC(C)C)sc3n2)cc1OC` the figure was 0.0301 mg/mL (≈ 81 µM); with `Cc1cc(C)c2c(N)c(C(=O)Nc3ccc(C)c(C)c3)sc2n1`, 0.0011 mg/mL (≈ 3.38 µM); with `O=C(c1cc(Cl)nc2ccccc12)N1CCc2ccccc2C1`, 0.0345 mg/mL (≈ 107 µM).
`COc1ccc(Oc2nc3c(c(=O)n(C)c(=O)n3C)n2C)cc1`: the solubility (kinetic) was over 0.0474 mg/mL.
Next, `O=C(NCCCCO)c1ccc2c3c(cccc13)CC2`: 0.0392 mg/mL (≈ 146 µM); `CC(C)c1ccc(N=C(N)N=C(N)N)cc1.Cl`: over 0.0384 mg/mL; `Cc1nc(N2CCOCC2)nc(Oc2ccccc2)c1[N+](=O)[O-]`: 0.0058 mg/mL (≈ 18.3 µM).
With `CC(=O)c1cc(CCC(=O)NC2CCCCCC2)oc1C` the figure was over 0.0437 mg/mL; with `CC(C)(C)c1ccc(S(=O)(=O)N2CCN(CC(O)CN3CCOCC3)CC2)cc1` (configuration not stated), over 0.0638 mg/mL; with `O=C(OCCN=C1NS(=O)(=O)c2ccccc21)c1cccc([N+](=O)[O-])c1`, 0.003 mg/mL (≈ 7.99 µM).
Next, `O=C(Nc1cccc(S(=O)(=O)N2CCCC2)c1)c1ccc(Cl)nc1`: 0.0156 mg/mL (≈ 42.6 µM); `Cc1cnc(NC(=O)Nc2ccccc2)c(C)n1`: 0.032 mg/mL (≈ 132 µM).
Turning to `COc1cccc(OC)c1C(=O)O/N=C(\N)c1ccncc1`, the solubility (kinetic) came out at 0.0422 mg/mL (≈ 140 µM).
With `NC(=O)CSc1ccc(S(=O)(=O)N2CCCCC2)cn1` the figure was 0.0446 mg/mL (≈ 141 µM); with `CCOC(=O)c1sc2nc(C)nc(N3CCN(S(=O)(=O)c4ccccc4)CC3)c2c1C`, 0.0025 mg/mL (≈ 5.43 µM); with `CCCCCCCOc1ccc(C2(C)NC(=O)NC2=O)cc1` (configuration not stated), 0.0093 mg/mL (≈ 30.6 µM).
Next, `O=C(C1CCCO1)N1CCN(c2ccccn2)CC1` (configuration not stated): 0.0368 mg/mL (≈ 141 µM); `CC(=O)Nc1ccc(NC(=O)COc2ncnc3ccccc23)cc1`: over 0.0505 mg/mL; `Cc1ccc(SCC(=O)NC(C)c2ccccc2)cc1` (configuration not stated): over 0.0428 mg/mL.
As to `Clc1ccc2scc(CN3CCCC3)c2c1`, the kinetic solubility was 0.0353 mg/mL (≈ 140 µM).
As for `N#Cc1ccc(C(=O)Nc2cc(S(=O)(=O)N3CCOCC3)ccc2N2CCCC2)cc1`, the solubility (kinetic) is over 0.0661 mg/mL.
With `Nc1nc2ccccc2n1Cc1ccc(Cl)c(Cl)c1` the figure was 0.0331 mg/mL (≈ 113 µM).
With `Cc1csc(NC(=O)c2ccc(OCC3CCCO3)cc2)n1` (configuration not stated) the figure was 0.021 mg/mL (≈ 66 µM); with `CC1CCC2(CC1)NC(=O)N(CC(=O)c1ccc3c(c1)OCO3)C2=O` (configuration not stated), 0.0038 mg/mL (≈ 11 µM).
With `CC(=O)N(c1ccc(C)cc1)c1nc(C)cc(C)c1C#N` the figure was over 0.0419 mg/mL; with `O=C(Nc1ccc(S(=O)(=O)Nc2ncccn2)cc1)C12CC3CC(CC(Cl)(C3)C1)C2`, over 0.067 mg/mL; with `CCOc1ccccc1N=CC1=C(O)CC(c2ccccc2)CC1=O` (configuration not stated), 0.0034 mg/mL (≈ 10.1 µM).
Take `Cc1ccc(S(=O)(=O)Nc2cccc(C(=O)NCC(c3ccc(F)cc3)N3CCOCC3)c2)cc1` (configuration not stated): the solubility (kinetic) worked out at 0.0582 mg/mL (≈ 117 µM). This solubility kinetic is about 17-fold higher than that of the molecule before.
With `C#CC1(NC(=O)NC(=O)c2c(F)cccc2F)CCCCC1` the figure was 0.0006 mg/mL (≈ 1.96 µM); with `COc1cc(C(=O)N[C@H](C(=O)OCC(=O)NC2CCCCCC2)C(C)C)cc(OC)c1OC`, over 0.0697 mg/mL; with `Cc1ccc(-c2nc3ccc(Cl)cc3c(=O)n2O)cc1`, 0.0422 mg/mL (≈ 147 µM).
Take `O=C(Cc1ccccc1)Nc1ccc(Cl)cn1`: the solubility (kinetic) is 0.0215 mg/mL (≈ 87.2 µM). Compared with the last molecule, the solubility kinetic is about 2-fold lower.
Next, `CCOC(=O)C1(Cc2ccc(Cl)cc2)CCN(C2CCC2)CC1`: 0.044 mg/mL (≈ 131 µM); `CC(C)(C)NC(=O)Cn1c(Cl)nc2ccccc21`: over 0.0399 mg/mL; `O=C(Nc1ccc(F)cc1F)N1CCN(CCc2ccccc2)CC1`: 0.0427 mg/mL (≈ 124 µM).
The molecule `COc1ccc(OCC(=O)N2CCCC2=O)c([N+](=O)[O-])c1` gave a solubility (kinetic) of 0.0428 mg/mL (≈ 145 µM). The solubility kinetic values of the last two molecules are within 1.5-fold of each other.
With `CCCn1cnc2cc(NCc3ccccc3O)ccc21` the figure was 0.0283 mg/mL (≈ 101 µM); with `CCC1CCc2c(sc(NC(=O)c3cnccn3)c2C(N)=O)C1` (configuration not stated), 0.0018 mg/mL (≈ 5.45 µM); with `CC(C)C(NC(=O)C1CCCCC1)C(=O)NC1CCCC(C)C1C` (configuration not stated), 0.0039 mg/mL (≈ 11.6 µM).
In turn, `NC(=O)c1c(NC(=O)c2ccc(F)cc2)sc2c1CCC2` registered a solubility (kinetic) of 0.0007 mg/mL (≈ 2.3 µM).
With `COc1ccccc1N1C(=S)NC2CS(=O)(=O)CC21` (configuration not stated) the figure was over 0.0448 mg/mL; with `O=C(NC1CCCC1)c1cc(COc2ccc3ncccc3c2)on1`, 0.0212 mg/mL (≈ 62.8 µM).
With `O=C1c2ccccc2C(=O)N1C(CO)C(O)c1ccc([N+](=O)[O-])cc1` (configuration not stated) the figure was over 0.0513 mg/mL; with `Cc1cc(S(=O)(=O)N2CCc3ccccc3C2)ccc1F`, under 0.0007 mg/mL; with `CCCS(=O)(=O)c1cnc(C2COc3ccccc3O2)nc1N` (configuration not stated), 0.0127 mg/mL (≈ 37.9 µM).
Consider `Cc1ccc(S(=O)(=O)NC(=O)c2cccc(N(C)C)c2)cc1`, for which the kinetic solubility is over 0.0478 mg/mL.
Next, `CCCCN(C(=O)C1CCC1)c1c(N)n(CCC)c(=O)[nH]c1=O`: over 0.0484 mg/mL.
With `COc1ccc(Cl)cc1NC(=S)NC1CCCC1` the figure was 0.003 mg/mL (≈ 10.5 µM).
With `O=C(COc1ncnc2sccc12)Nc1ccc(F)cc1F` the figure was over 0.0482 mg/mL; with `COc1ccc(CCN=C(N)Nc2nc(C)cc(C)n2)cc1`, 0.0365 mg/mL (≈ 122 µM).
For `COc1ccccc1C(=O)O/N=C(\c1ccccc1)c1ccncc1`, the solubility (kinetic) was 0.034 mg/mL (≈ 102 µM).
Next, `CCCC(=O)Nc1cc2c3c(c1)CC(=O)N3CCC2`: over 0.0387 mg/mL; `C/C(=C\C(=O)c1ccc(Cl)cc1Cl)N(C)C`: 0.0038 mg/mL (≈ 14.7 µM); `CC(C)(C)N(Cc1ccccc1)C(=O)CN1C(=O)c2ccccc2S1(=O)=O`: 0.0157 mg/mL (≈ 40.6 µM).
With `CCCOc1ccc2ccccc2c1/C=C1\SC(=O)NC1=O` the figure was over 0.047 mg/mL; with `COCCN(C/C=C/c1ccccc1)C/C=C/c1ccccc1`, 0.0101 mg/mL (≈ 32.9 µM); with `Cc1cc(C)c(C)c(S(=O)(=O)N2CCCN(C)CC2)c1C`, over 0.0466 mg/mL.
Take `O=c1c2sc(-c3ccccc3)cc2nc2n1CCCCC2`: the kinetic solubility was determined as 0.0295 mg/mL (≈ 99.5 µM).
With `O=C(NCCNc1ccc([N+](=O)[O-])cc1)c1ccc(Cl)cc1` the figure was 0.0019 mg/mL (≈ 5.94 µM); with `COc1cccc(NC(=O)COC(=O)c2ccc3ccccc3n2)c1`, 0.0434 mg/mL (≈ 129 µM); with `O=S(=O)(c1ccccc1)N1CC=C(c2ccccc2)CC1`, 0.0011 mg/mL (≈ 3.67 µM).
Next, `O=S(=O)(Cc1ccco1)Cc1nc(-c2ccc(Cl)cc2)cs1`: 0.0009 mg/mL (≈ 2.54 µM).
